Earlier results, collected in patent US20050171207A1, “Method and composition for combination treatment of neurodegenerative disorders” (Myriad Genetics, Incorporated, priority 2003, published 2005).
Where two headings read alike, the source gives them in different places.

Assays:
mild-to-moderate AD [1] = conditions: rofecoxib at 25 mg daily; naproxen in the same trial
[2] = tested on: Alzheimer's disease excitotoxic model; conditions: in vivo Alzheimer's disease excitotoxic model system
Aβ42 [3] = conditions: CHO cells
[4] = tested on: pain related chemo-somatosensory evoked potentials; conditions: 50 mg and 100 mg doses, human subjects
Aβ42 [5] = conditions: transgenic mouse model
mild-to-moderate AD [6] = conditions: in vivo

**Q.** Which “efficacy for treating AD” value (mild-to-moderate AD [1]) does the source give for `COc1ccc2cc([C@H](C)C(=O)O)ccc2c1` [Naproxen] here?
**A.** failed to show efficacy

**Q.** What does the source list for `CS(=O)(=O)c1ccc(C2=C(c3ccccc3)C(=O)OC2)cc1` [rofecoxib]?
**A.** neuroprotection [2]: provides neuroprotection; efficacy for treating AD (mild-to-moderate AD [1]): failed to show efficacy

**Q.** For `C[C@@H](C(=O)O)c1ccc(-c2ccccc2)c(F)c1` [R-flurbiprofen], which Aβ42 lowering (Aβ42 [3]) is on record?
**A.** lower Aβ42

**Q.** And the “inhibition of COX activity” value (COX)?
**A.** negligibly inhibits COX activity

**Q.** What about the analgesic effect [4] of the same molecule?
**A.** produced an analgesic effect

**Q.** What about the Aβ42 lowering (Aβ42 [5]) of the same molecule?
**A.** lower Aβ42

**Q.** For `CC12CC3CC(C)(C1)CC(N)(C3)C2` [memantine], which “efficacy in treating mild-to-moderate AD” value (mild-to-moderate AD [6]) is on record?
**A.** showed efficacy
